The nature of this series: Phase III trial: safety profiles, treatment completion and compliance. The following applies: in vivo.

Protocol: After signing the consent form, the eligibility of each patient was verified according to the enrollment criteria by checking his/her medical records and current disease conditions. Eligible patients were stratified by tumor size (<5 cm vs. ≥5 cm) and vascular invasion (no vs. yes) and then randomized at a ratio of 1:1 within strata to receive PI-88 (160 mg/day) or a placebo by using a centralized interactive web response system (Cenduit Interactive Response Technology; Cenduit, Durham, N.C., USA).
PI-88 or placebo was administered in a single subcutaneous injection each day for four consecutive days per week for 3 weeks out of every 4 weeks (a cycle with 4-weeks). The days of injection were the same in every administration week. After an initial training period of 1-8 days, participants self-administered the study drug at home. Participants received treatment for up to 52 weeks and were followed until 96 weeks.
If the antiheparin antibody test was positive, the participant was asked to permanently discontinue the treatment.
The distributional properties of continuous variables are expressed as mean t standard deviation, categorical variables are presented as frequency and percentage (%), and the survival curves of the DFS period were estimated using the Kaplan-Meier method. Baseline demographic and clinical characteristics were compared between the PI-88 and placebo groups. […]

As to muparfostat [PI-88], the “fatal AEs during the study treatment period” value is given as “No patients”.

For the origin of these results see patent US10842804B2 (MEDIGEN BIOTECHNOLOGY CORP., priority 2017, dated 2020).
